Assay type in all cases: binding
Holding throughout (conditions): Example 1

The target of experiment [1] is T1, βCat-BCL9 (beta-Catenin/BCL9-BCL9L interaction) (Homo sapiens, UniProt P35222).
T1 sequence (P35222 1-781): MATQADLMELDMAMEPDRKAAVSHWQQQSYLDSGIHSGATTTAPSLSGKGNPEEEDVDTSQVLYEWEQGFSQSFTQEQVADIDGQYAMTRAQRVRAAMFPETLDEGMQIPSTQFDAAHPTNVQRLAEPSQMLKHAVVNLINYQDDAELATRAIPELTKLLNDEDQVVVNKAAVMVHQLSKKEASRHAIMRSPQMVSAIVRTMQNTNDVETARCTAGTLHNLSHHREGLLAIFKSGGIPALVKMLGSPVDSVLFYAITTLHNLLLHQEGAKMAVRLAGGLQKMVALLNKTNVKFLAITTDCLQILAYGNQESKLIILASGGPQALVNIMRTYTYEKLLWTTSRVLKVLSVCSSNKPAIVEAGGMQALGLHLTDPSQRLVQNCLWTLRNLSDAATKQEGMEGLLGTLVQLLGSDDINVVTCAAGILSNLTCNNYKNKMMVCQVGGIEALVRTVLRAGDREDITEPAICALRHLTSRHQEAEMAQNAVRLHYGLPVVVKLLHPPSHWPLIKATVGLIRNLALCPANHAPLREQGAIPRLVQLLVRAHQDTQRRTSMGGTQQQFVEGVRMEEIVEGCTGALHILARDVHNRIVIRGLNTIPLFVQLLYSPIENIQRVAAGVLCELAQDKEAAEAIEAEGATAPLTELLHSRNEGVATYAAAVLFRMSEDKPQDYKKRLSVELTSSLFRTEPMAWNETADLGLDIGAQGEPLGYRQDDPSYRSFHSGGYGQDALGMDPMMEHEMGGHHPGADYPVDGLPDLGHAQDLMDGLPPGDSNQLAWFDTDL
In words: ELISA based protein-protein interaction assay, βCat-BCL9. The text has this: (§1) cDNAs including the binding domains of Lgs and beta-Catenin were fused down-stream of glutathione-S-transferase (GST) cDNA in pGEX-4T inducible bacterial expression vector (Pharmacia). Similar recombinant DNA constructs were generated in the pET-32a(+) vector (Novagen) for expression of fusion protein containing the Thioredoxine-6His tag at their N-terminus. Fusion proteins were produced in BL21 bacteria (e.g. Stratagene) following manufacturer's recommendation.
(§2) To isolate the produced fusions protein, bacteria were ground in aluminum oxide (Sigma, A2039) and the resulting powder extracted in lysis buffer (140 mM NaCl, 10 mM Na2HPO4, 1.8 mM KH2PO4, 2.7 mM KCl, 1 mM EDTA, 1% Triton-X-100, 1 mM DTT and protease inhibitors) under rotation for 30 minutes. Supernatants were cleared by centrifugation then filtered on a 0.45 μm membrane before protein purification. For GST tagged protein, lysate were processed on glutathione agarose beads following manufacturer's recommendation (Amersham Pharmacia) and purified proteins eluted in 50 mM Tris-Cl, 10 mM reduced glutathione pH8.0. For thioredoxine-6His fusions, tagged proteins were purified from the lysate on a nickel chelating column (e.g. Hitrap chelating, G.E. Healthcare) using an HPLC system (e.g. Akta Prime, G.E. Healthcare) and eluted under increasing concentration of imidazole. The purified proteins solution was dialyzed against PBS before use. The quality of the preparations was checked by SDS-gel electrophoresis by standard methods well known by persons skilled in the art.
(§3) Compound preparation: Compounds can be prepared as 25 mM stock in DMSO and diluted in DMSO to reach final test concentrations of up to 100 μM. Final DMSO concentration in the assay is 5%.
(§4) 100 μl of GST fusion protein (e.g. GST-βCatenin) diluted to the appropriate concentration in phosphate buffer saline are added per well to a 96 well plate with high protein binding capacity (e.g. Nunc Maxisorp) and placed at 4° C. overnight. The following day the liquid in the wells is discarded and 150 μl 3% bovine serum albumin (BSA) in PBS are added to each well and incubated at room temperature for 2 hours under moderate shaking. This solution is then discarded and each well washed twice with 200 μl PBS. After carefully discarding the second wash, a mixture of 5 μl compound dilution and 95 μl 6His fusion protein (e.g. 6His-Bcl9) diluted to the appropriate concentration in PBS is added to each well. The plate is then incubated for 1 hour at room temperature under moderate shaking. This protein solution is then discarded and the wells washed 3 times with 200 μl 0.1% Tween-20 solution in PBS. After carefully discarding the final wash, 100 μl of anti 6His antibody conjugated to the horse-radish peroxidase (e.g. Roche antibody 11965085001) at the appropriate dilution in 1% BSA in PBS is added to the wells and the plate incubated for 1 hour at room temperature under moderate shaking. This solution is then discarded and the wells washed 3 times with 200 μl 0.1% Tween-20 solution in PBS. After carefully discarding the final wash, 100 μl of HRP substrate […] (TMB) in solution (e.g. Sigma T0440) is added to the wells and the plate incubated up to 30 minutes in the dark at room temperature. The reaction is stopped by addition of 100 μl of 2N HCl to each well and the optical density is measured at 450 nm and 630 nm.
In general terms: In an ELISA, binding on a coated surface is turned into a signal by an enzyme label.

Experiment [2] has as its target T2, βCat-TCF4 (Tcf-4-βCatenin interaction) (Homo sapiens, UniProt P35222).
T2 sequence (P35222 141-664 limits assumed): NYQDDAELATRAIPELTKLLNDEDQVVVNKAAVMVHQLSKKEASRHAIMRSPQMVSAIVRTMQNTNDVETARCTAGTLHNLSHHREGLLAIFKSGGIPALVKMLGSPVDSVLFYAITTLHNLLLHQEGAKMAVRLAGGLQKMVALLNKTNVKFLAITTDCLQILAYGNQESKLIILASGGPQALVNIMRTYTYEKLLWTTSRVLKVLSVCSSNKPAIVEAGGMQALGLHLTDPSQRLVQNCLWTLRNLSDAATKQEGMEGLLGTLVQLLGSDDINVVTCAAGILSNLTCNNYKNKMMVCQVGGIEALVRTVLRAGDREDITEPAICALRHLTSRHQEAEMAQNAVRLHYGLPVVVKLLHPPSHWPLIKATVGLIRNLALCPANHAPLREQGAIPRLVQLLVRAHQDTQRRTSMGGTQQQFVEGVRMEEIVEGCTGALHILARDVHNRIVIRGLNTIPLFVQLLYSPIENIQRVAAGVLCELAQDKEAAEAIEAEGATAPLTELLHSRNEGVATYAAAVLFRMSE
In words: ELISA based protein-protein interaction assay, βCat-TCF4.
Description: as §1, §2, §3, §4

In experiment [3] the target is T3, βCat-ECad (E-Cadherin-βCatenin interaction) (Homo sapiens, UniProt P35222).
T3 sequence (P35222 134-671 limits assumed): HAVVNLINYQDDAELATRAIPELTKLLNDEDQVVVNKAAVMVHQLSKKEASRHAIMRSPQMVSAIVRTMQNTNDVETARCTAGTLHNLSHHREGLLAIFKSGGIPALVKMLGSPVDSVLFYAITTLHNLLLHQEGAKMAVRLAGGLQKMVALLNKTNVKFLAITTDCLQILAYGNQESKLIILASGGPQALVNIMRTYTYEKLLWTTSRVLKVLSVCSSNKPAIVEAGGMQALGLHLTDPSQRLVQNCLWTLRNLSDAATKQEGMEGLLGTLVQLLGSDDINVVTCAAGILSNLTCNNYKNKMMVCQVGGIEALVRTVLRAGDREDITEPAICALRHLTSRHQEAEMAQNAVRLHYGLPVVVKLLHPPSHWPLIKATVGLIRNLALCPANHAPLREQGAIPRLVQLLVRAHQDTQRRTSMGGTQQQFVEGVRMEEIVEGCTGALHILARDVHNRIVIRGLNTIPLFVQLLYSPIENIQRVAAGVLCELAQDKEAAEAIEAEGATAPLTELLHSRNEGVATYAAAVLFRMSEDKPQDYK
Nature of the experiment: ELISA based protein-protein interaction assay, βCat-ECad.
Description: as §1, §2, §3, §4

What is called IC50 is the concentration at which inhibition is half-maximal. The low end stands for inhibition by little substance, the high end for a need for much substance. As to `COC(=O)c1ccc(NC(=O)c2cc(OC)c(C(=O)Nc3ccc(C(=O)OC)cc3)cc2OC)cc1` [TGC0012302], the figures for the IC50 in experiment [1], in experiment [2] and in experiment [3] were 94 µM, more than 100 µM and more than 100 µM, respectively.
With `O=C(Nc1cccnc1)c1ccc(C(=O)Nc2cccnc2)nc1` [TGC0011423], the concentration for half-maximal inhibition (IC50) in experiment [1] is 29 µM; in experiment [2], more than 100 µM; in experiment [3] it was more than 100 µM.
On to `COC(=O)c1ccc(NC(=O)c2ccc(C(=O)Nc3ccc(C(=O)OC)cc3Cl)nc2)c(Cl)c1` [TGC0011605], for which the IC50 in experiment [1] is more than 50 µM; in experiment [2], 22 µM; in experiment [3] it was 21 µM.
For the compound `COc1cccc(NC(=O)c2ccc(C(=O)Nc3cccc(OC)c3)nc2)c1` [TGC0011280], the values for the IC50 in experiment [1], in experiment [2] and in experiment [3] were more than 100 µM, 23 µM and 21 µM, respectively.
Taken in the same sequence, the figures for `Cc1nnc(NC(=O)c2ccc(C(=O)Nc3nnc(C)s3)nc2)s1` [TGC0011344] were 86 µM, 119 µM and 41.4 µM.
On the same counts, the results for `COc1cccc(C(=O)Nc2ccc(-c3cnc(-c4ccc(NC(=O)c5cccc(OC)c5)cc4)nc3)cc2)c1` [TGC0011528] are more than 50 µM, more than 50 µM and more than 50 µM.
Taken in the same sequence, the figures for `N#Cc1ccc(NC(=O)c2ccc(C(=O)Nc3ccc(C#N)cc3)cc2)cc1` [TGC0012303] were 5 µM, more than 10 µM and more than 10 µM.
Regarding `CC(=O)c1ccc(NC(=O)c2ccc(C(=O)Nc3ccc(C(C)=O)cc3)nc2)cc1` [TGC0011285], the IC50 in experiment [1] was 6 µM; in experiment [2], more than 10 µM; in experiment [3], more than 10 µM.
As to `O=C(Nc1ccc2oc(=O)ccc2c1)c1ccc(C(=O)Nc2ccc3oc(=O)ccc3c2)cc1` [TGC0012296], the figures for the half-inhibitory concentration (IC50) in experiment [1], in experiment [2] and in experiment [3] were 3 µM, more than 10 µM and more than 10 µM, respectively.
Consider `O=C(NCc1ccco1)c1ccc(C(=O)NCc2ccco2)nc1` [TGC0011428], for which the 50% inhibitory concentration (IC50) in experiment [1], in experiment [2] and in experiment [3] was more than 50 µM throughout.
Consider `COC(=O)c1cc(NC(=O)c2ccc(C(=O)Nc3cc(C(=O)OC)cc(C(=O)OC)c3)nc2)cc(C(=O)OC)c1` [TGC0000160], for which the figures for the IC50 in experiment [1] and in experiment [2] were 38 µM and more than 100 µM, respectively.
On to `COc1ccc(CCNC(=O)c2ccc(C(=O)NCCc3ccc(OC)c(OC)c3)nc2)cc1OC` [TGC0011342], for which the IC50 in experiment [1], in experiment [2] and in experiment [3] was more than 50 µM each time.
In turn, `O=C(Nc1ccccc1)c1ccc(C(=O)Nc2ccccc2)nc1` [TGC0011286] came in with an IC50 in experiment [1] of more than 100 µM.
In the case of `CCCC(=O)Nc1ccc(-c2cnc(-c3ccc(NC(=O)CCC)cc3)nc2)cc1` [TGC0011566], the IC50 in experiment [1] is 68 µM; in experiment [2], more than 100 µM; in experiment [3], more than 100 µM.
`CC(C)(C)C(=O)Nc1cccc(C(=O)Nc2ccc(-c3cnc(-c4ccc(NC(=O)c5cccc(NC(=O)C(C)(C)C)c5)cc4)nc3)cc2)c1` [TGC0011527] displayed an IC50 in experiment [1] of more than 10 µM.
As to `COC(=O)c1ccc(NC(=O)c2ccc(C(=O)Nc3ccc(C(=O)OC)cc3)nc2)cc1` [TGC0011288], the results for the IC50 in experiment [1], in experiment [2] and in experiment [3] were 2 µM, more than 10 µM and more than 10 µM, respectively.
As for `O=C(NCc1ccc(F)cc1)c1ccc(C(=O)NCc2ccc(F)cc2)nc1` [TGC0011337], the concentration for half-maximal inhibition (IC50) in experiment [1] was more than 10 µM.
On the same count and under the same terms, next, `O=C(Nc1ccc(-c2cnc(-c3ccc(NC(=O)c4ccco4)cc3)nc2)cc1)c1ccco1` [TGC0011531]: more than 10 µM; `Cc1ccccc1C(=O)Nc1ccc(-c2cnc(-c3ccc(NC(=O)c4ccccc4C)cc3)nc2)cc1` [TGC0011529]: more than 100 µM; `CC(=O)Nc1cccc(NC(=O)c2ccc(C(=O)Nc3cccc(NC(C)=O)c3)nc2)c1` [TGC0011279]: more than 100 µM.
`O=C(NCCc1ccccn1)c1ccc(C(=O)NCCc2ccccn2)nc1` [TGC0011455]: the IC50 in experiment [1] is more than 100 µM.
The same measure, in the same setting: with `O=C(NCCc1ccc(F)cc1)c1ccc(C(=O)NCCc2ccc(F)cc2)nc1` [TGC0011447] the figure was more than 50 µM.
Same read-out and setting: with `NC(=O)c1ccc(NC(=O)c2ccc(C(=O)Nc3ccc(C(N)=O)cc3)cc2)cc1` [TGC0012293] the figure was more than 10 µM.
With `O=C(NCc1ccc2c(c1)OCO2)c1ccc(C(=O)NCc2ccc3c(c2)OCO3)nc1` [TGC0011430], the IC50 in experiment [1], in experiment [2] and in experiment [3] was more than 50 µM each time.
Compound `COc1cccc(CCNC(=O)c2ccc(C(=O)NCCc3cccc(OC)c3)nc2)c1` [TGC0011446] displayed a concentration for half-maximal inhibition (IC50) in experiment [1] of more than 10 µM.

The values above are taken from patent US20100204219A1, “AROMATIC 1,4-DI-CARBOXYLAMIDES AND THEIR USE” (priority 2006, published 2010).
